Reference: patent publication US9926340B2, “NAD analogs and methods of using said NAD analogs in determining ribosylation of proteins with PARP mutants” (The Board of Regents of the University of Texas System, priority 2015, dated 2018)

System: HeLa cell nuclear extract proteins
Test: ADP-ribosylation of HeLa cell nuclear extract proteins by asPARPs 1, 2 or 3
Assay type: biochemical, human
Conditions: purified recombinant asPARPs 1, 2, or 3; 250 μM analog, 15 min
Procedure: HeLa cell nuclear extract preparation. HeLa Nuclear Extract was prepared essentially as described in Dignam et al., 1983. 5 L of HeLa S3 cells were grown in Spinner flasks to a density of 0.5×10^6 cells per milliliter and harvested by centrifugation at 4° C. for 10 minutes at 2000 RPM. Cell pellets were washed in 5 pelleted cell volumes of ice cold PBS and centrifuged 10 minutes at 2000 RPM. Cells were resuspended in 5 pelleted cell volumes of Buffer A (10 mM HEPES, pH 7.9, 1.5 mM MgCl2, 10 mM KCl, 0.5 mM DTT, 1 mM PMSF, 4 mM Benzamidine, 1 μM Aprotinin, 100 μM Leupeptin, 1 μM Pepstatin A) and incubated 10 minutes on ice to facilitate cell swelling and centrifuged at 4° C. for 10 minutes at 2000 RPM. Cells were resuspended in 2 pelleted cell volumes of Buffer A and dounced with a light pestle dounce homogenizer (Wheaton) to release nuclei. The nuclei were then pelleted by centrifugation at 4° C. for 10 minutes at 2000 RPM and the supernatant decanted. The nuclei were subsequently centrifuged at 4° C. for 20 minutes at 25,000 RCF to obtain a crude nuclear fraction. […]

Structure (SMILES): C#CCCSc1nc2c(N)ncnc2n1[C@@H]1O[C@H](COP(=O)(O)OP(=O)(O)OC[C@H]2O[C@@H]([n+]3cccc(C(N)=O)c3)C(O)C2O)[C@H](O)C1O (stereo partly shown) [8-Bu(3-yne)T-NAD^+]
- labeling of HeLa cell nuclear extract proteins: PARP-specific labeling of extract proteins
